Here are results for 31 molecules from patent US5952321A, “Substituted azetidinones as anti-inflammatory and antidegenerative agents” (Merck & Co., Inc., priority 1996, dated 1999).

Where a name gives a salt, the structure may show the parent alone.

One assay deals with T1, Human Polymorphonuclear Leukocyte Elastase (Homo sapiens, UniProt P08246).
T1 sequence (P08246 30-267): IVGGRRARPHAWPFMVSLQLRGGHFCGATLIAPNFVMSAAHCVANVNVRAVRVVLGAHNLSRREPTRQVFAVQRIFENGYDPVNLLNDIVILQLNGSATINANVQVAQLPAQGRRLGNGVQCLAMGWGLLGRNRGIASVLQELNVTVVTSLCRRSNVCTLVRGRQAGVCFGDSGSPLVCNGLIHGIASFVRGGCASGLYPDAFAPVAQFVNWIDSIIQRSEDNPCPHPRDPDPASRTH
The assay can be described thus: Inhibition of human polymorphonuclear leukocyte elastase via hydrolysis of Boc-AAPAN or Boc-AAPVN. The following applies: pH 7.5, Table I; second order rate constant for inactivation of the enzyme; read-out: Kobs /[I]. The class given is biochemical. The method, then: Enzyme Assays for the Inhibition of Human Polymorphonuclear Leukocyte Elastase Via Hydrolysis of N-t-Boc-alanyl-alanyl-prolylalanine-p-nitroanilide (Boc-AAPAN) or […] (Boc-AAPVN) Reagent:
0.05M TES (N-tris[hydroxymethyl]methyl-2-amino-ethanesulfonic acid) Buffer, pH 7.5.
0.2 mM Boc-AAPAN or Boc-AAPVN.
To prepare substrate, the solid was first dissolved in 10.0 ml DMSO. Buffer at pH 7.5 was then added to a final volume of 100 ml.
Crude extract of human polymorphonuclear leukocytes (PMN) containing elastase activity.
Inhibitors (azetidinones) to be tested dissolved in DMSO just before use.
To 1.0 ml of 0.2 mM Boc-AAPAN in a cuvette, 0.01-0.1 ml of DMSO with or without inhibitor was added. After mixing, a measurement was taken at 410 mμ to detect any spontaneous hydrolysis due to presence of test compound. 0.05 Milliliters of PMN extract was then added and the ΔOD/min at 410 mμ was measured and recorded. Beckman model 35 spectrophotometer was used.
Results in Tables I to III were reported as ID50, effective dosage in micrograms per milliliter (μg/ml) for 50% inhibition of the enzyme activity 2 minutes after zero time.
Results were also expressed as Ki, the micromolar concentration of the inhibitor (μM) giving 50% of the control enzyme activity; or as ^k obs/I which is the second order rate constant in per mole per second for inactivation of the enzyme.
The elastase activity in the crude PMN extract may vary from one preparation to another. A control of each new batch is run, and the volume added in the assay procedure is adjusted according to activity.
`CCC[C@@H](NC(=O)N1C(=O)C(CC)(CC)[C@@H]1Oc1ccc(CNC(=O)Cc2cccnc2)cc1)c1ccc(C)cc1` [R4=H; R5=COCH2-3-pyridyl; R6=H, (4S)-3,3-Diethyl-1-[(R)-α-(n-propyl)-4-(methyl)benzylaminocarbonyl]-4-[(4-((3-pyridyl)methylcarbonyl)aminomethyl)phenoxy]azetidin-2-one]: the kinact/KI amounted to 1.25e+06 M⁻¹ s⁻¹. Still for that read-out and setting: as for `CCC[C@@H](NC(=O)N1C(=O)C(CC)(CC)[C@@H]1Oc1ccc(CNC(=O)Cc2c[nH]cn2)cc1)c1ccc(C)cc1` [R4=H; R5=COCH2-4-imidazolyl; R6=H, (4S)-3,3-Diethyl-1-[(R)-α-(n-propyl)-4-(methyl)benzylaminocarbonyl]-4-[(4-((4-imidazolyl)methylcarbonyl)aminomethyl)phenoxy]azetidin-2-one], the figure is 850000 M⁻¹ s⁻¹; as for `CCC[C@@H](NC(=O)N1C(=O)C(CC)(CC)[C@@H]1Oc1ccc(CNC(=O)Cc2ccncc2)cc1)c1ccc(C)cc1` [R4=H; R5=COCH2-4-pyridyl; R6=H, (4S)-3,3-Diethyl-1-[(R)-α-(n-propyl)-4-(methyl)benzylaminocarbonyl]-4-[(4-((4-pyridyl)methylcarbonyl)aminomethyl)phenoxy]azetidin-2-one], 1.7e+06 M⁻¹ s⁻¹. Still for that read-out and setting: as for `CCC[C@@H](NC(=O)N1C(=O)C(CC)(CC)[C@@H]1Oc1ccc(CNC(=O)NCc2ccccc2)cc1)c1ccc(C)cc1` [R4=H; R5=CONH Bn; R6=H, (4S)-3,3-Diethyl-1-[(R)-α-(n-propyl)-4-(methyl)benzylaminocarbonyl]-4-[(4-((N-benzyl)aminocarbonyl)aminomethyl)phenoxy]azetidin-2-one], the figure is 1.6e+06 M⁻¹ s⁻¹; as for `CCC[C@@H](NC(=O)N1C(=O)C(CC)(CC)[C@@H]1Oc1ccc(CNC(=O)NC(C)C)cc1)c1ccc(C)cc1` [R4=H; R5=CONH isoPr; R6=H, (4S)-3,3-Diethyl-1-[(R)-α-(n-propyl)-4-(methyl)benzylaminocarbonyl]-4-[(4-((N-isopropyl)aminocarbonyl)aminomethyl)phenoxy]azetidin-2-one], 1.1e+06 M⁻¹ s⁻¹; as for `CCC[C@@H](NC(=O)N1C(=O)C(CC)(CC)[C@@H]1Oc1ccc(CNC(=O)NC)cc1)c1ccc(C)cc1` [R4=H; R5=CONHMe; R6=H, (4S)-3,3-Diethyl-1-[(R)-α-(n-propyl)-4-(methyl)benzylaminocarbonyl]-4-[(4-((N-methyl)aminocarbonyl)aminomethyl)phenoxy]azetidin-2-one], 1.1e+06 M⁻¹ s⁻¹.

Turning to `CCCNC(=O)NCc1ccc(O[C@@H]2N(C(=O)N[C@H](CCC)c3ccc(C)cc3)C(=O)C2(CC)CC)cc1` [R4=H; R5=CONHnPr; R6=H, (4S)-3,3-Diethyl-1-[(R)-α-(n-propyl)-4-(methyl)benzylaminocarbonyl]-4-[(4-((N-propyl)aminocarbonyl)aminomethyl)phenoxy]azetidin-2-one], the kinact/KI was found to be 1.2e+06 M⁻¹ s⁻¹. As for `CCC[C@@H](NC(=O)N1C(=O)C(CC)(CC)[C@@H]1Oc1ccc(CN)cc1)c1ccc(C)cc1` [R4=H; R5=H; R6=H, (4S)-3,3-Diethyl-1-[(R)-α-(n-propyl)-4-(methyl)benzylaminocarbonyl]-4-[(4-aminomethyl)phenoxy]azetidin-2-one], the kinact/KI came out at 325000 M⁻¹ s⁻¹.

Consider `CCC[C@@H](NC(=O)N1C(=O)C(CC)(CC)[C@@H]1Oc1ccc(CN(C)Cc2ccccc2)cc1)c1ccc(C)cc1` [R4=Me; R5=Bn; R6=H], for which the kinact/KI was found to be 400000 M⁻¹ s⁻¹. On the same count and under the same terms, in the case of `CCC[C@@H](NC(=O)N1C(=O)C(CC)(CC)[C@@H]1Oc1ccc(CN(C)CCCOC(=O)N(C)C)cc1)c1ccc(C)cc1` [R4=Me; R5=CH2 CH2 CH2 OCONMe2; R6=H] it was 2.1e+06 M⁻¹ s⁻¹; in that of `CCC[C@@H](NC(=O)N1C(=O)C(CC)(CC)[C@@H]1Oc1ccc(CN(C)CCCOC)cc1)c1ccc(C)cc1` [R4=Me; R5=CH2 CH2 CH2 OMe; R6=H], 1.5e+06 M⁻¹ s⁻¹. Same read-out and setting: in the case of `CCC[C@@H](NC(=O)N1C(=O)C(CC)(CC)[C@@H]1Oc1ccc(CN(C)CCC(=O)O)cc1)c1ccc(C)cc1` [R4=Me; R5=CH2 CH2 CO2 H--TFA; R6=H] it was 440000 M⁻¹ s⁻¹; in that of `CCC[C@@H](NC(=O)N1C(=O)C(CC)(CC)[C@@H]1Oc1ccc(CN(C)CCC(=O)N(C)C)cc1)c1ccc(C)cc1` [R4=Me; R5=CH2 CH2 CONMe2; R6=H], 870000 M⁻¹ s⁻¹.

For the molecule `CCC[C@@H](NC(=O)N1C(=O)C(CC)(CC)[C@@H]1Oc1ccc(CN(C)CCN(C)C(C)=O)cc1)c1ccc(C)cc1` [R4=Me; R5=CH2 CH2 N(Me)Ac; R6=H], the kinact/KI was 650000 M⁻¹ s⁻¹. Still for that read-out and setting: in the case of `CCC[C@@H](NC(=O)N1C(=O)C(CC)(CC)[C@@H]1Oc1ccc(CN(C)CCN(C)Cc2ccccc2)cc1)c1ccc(C)cc1` [R4=Me; R5=CH2 CH2 N(Me)Bn; R6=H] it was 1.25e+06 M⁻¹ s⁻¹; in that of `CCC[C@@H](NC(=O)N1C(=O)C(CC)(CC)[C@@H]1Oc1ccc(CN(C)CCN(C)C(=O)N(C)C)cc1)c1ccc(C)cc1` [R4=Me; R5=CH2 CH2 N(Me)CONMe2; R6=H], 850000 M⁻¹ s⁻¹.

Take `CCC[C@@H](NC(=O)N1C(=O)C(CC)(CC)[C@@H]1Oc1ccc(CN(C)CCN(C)C(=O)OC)cc1)c1ccc(C)cc1` [R4=Me; R5=CH2 CH2 N(Me)COOMe; R6=H]: the kinact/KI was 1.1e+06 M⁻¹ s⁻¹. In the case of `CCC[C@@H](NC(=O)N1C(=O)C(CC)(CC)[C@@H]1Oc1ccc(CN(C)CCN(C)C)cc1)c1ccc(C)cc1` [R4=Me; R5=CH2 CH2 NMe2; R6=H], the kinact/KI was found to be 850000 M⁻¹ s⁻¹. Same read-out and setting: as for `CCC[C@@H](NC(=O)N1C(=O)C(CC)(CC)[C@@H]1Oc1ccc(CN(C)CCOCCOC)cc1)c1ccc(C)cc1` [R4=Me; R5=CH2 CH2 OCH2 CH2 OMe; R6=H], the figure is 1.9e+06 M⁻¹ s⁻¹; as for `CCC[C@@H](NC(=O)N1C(=O)C(CC)(CC)[C@@H]1Oc1ccc(C(C)N(C)CCOCCOC)cc1)c1ccc(C)cc1` (stereo partly shown) [R4=Me; R5=CH2 CH2 OCH2 CH2 OMe; R6=Me], 825000 M⁻¹ s⁻¹. In the case of `CCC[C@@H](NC(=O)N1C(=O)C(CC)(CC)[C@@H]1Oc1ccc(CN(C)CCOC(=O)C(C)C)cc1)c1ccc(C)cc1` [R4=Me; R5=CH2 CH2 OCOCHMe2; R6=H], the kinact/KI came to 630000 M⁻¹ s⁻¹. Take `CCC[C@@H](NC(=O)N1C(=O)C(CC)(CC)[C@@H]1Oc1ccc(CN(C)CCOC(=O)C(C)(C)C)cc1)c1ccc(C)cc1` [R4=Me; R5=CH2 CH2 OCOCMe3; R6=H]: the kinact/KI stood at 230000 M⁻¹ s⁻¹.

For `CCCCN(C)C(=O)OCCN(C)Cc1ccc(O[C@@H]2N(C(=O)N[C@H](CCC)c3ccc(C)cc3)C(=O)C2(CC)CC)cc1` [R4=Me; R5=CH2 CH2 OCON(Me)n-Bu; R6=H], the kinact/KI was found to be 1.3e+06 M⁻¹ s⁻¹. Same read-out and setting: as for `CCC[C@@H](NC(=O)N1C(=O)C(CC)(CC)[C@@H]1Oc1ccc(CN(C)CCOC(=O)N(CC)CC)cc1)c1ccc(C)cc1` [R4=Me; R5=CH2 CH2 OCONEt2; R6=H], the figure is 1.23e+06 M⁻¹ s⁻¹; as for `CCC[C@@H](NC(=O)N1C(=O)C(CC)(CC)[C@@H]1Oc1ccc(CN(C)CCOC(=O)NC(C)C)cc1)c1ccc(C)cc1` [R4=Me; R5=CH2 CH2 OCONH(i-Pr); R6=H], 1.85e+06 M⁻¹ s⁻¹.

Consider `CCC[C@@H](NC(=O)N1C(=O)C(CC)(CC)[C@@H]1Oc1ccc(CN(C)CCOC(=O)NC)cc1)c1ccc(C)cc1` [R4=Me; R5=CH2 CH2 OCONHMe; R6=H], for which the kinact/KI came out at 700000 M⁻¹ s⁻¹.

In the case of `CCC[C@@H](NC(=O)N1C(=O)C(CC)(CC)[C@@H]1Oc1ccc(CN(C)CCOC(=O)N(C)C)cc1)c1ccc(C)cc1` [R4=Me; R5=CH2 CH2 OCONMe2; R6=H, (4S)-3,3-Diethyl-1-[(R)-α-n-propyl-(4-methyl)benzylaminocarbonyl]-4-[(4-((2-dimethylaminocarbonyloxy)ethyl)methylaminomethyl)phenoxy]azetidin-2-one], the kinact/KI was found to be 610000 M⁻¹ s⁻¹. Take `CCC[C@@H](NC(=O)N1C(=O)C(CC)(CC)[C@@H]1Oc1ccc(C(C)N(C)CCOC(=O)N(C)C)cc1)c1ccc(C)cc1` (stereo partly shown) [R4=Me; R5=CH2 CH2 OCONMe2; R6=Me]: the kinact/KI is 925000 M⁻¹ s⁻¹.

Still in this assay, the particulars now being: pH 7.5, Table II; second order rate constant for inactivation of the enzyme; read-out: Kobs /[I].
As for `CCC[C@@H](NC(=O)N1C(=O)C(CC)(CC)[C@@H]1Oc1ccc(CCN(C)Cc2ccccc2)cc1)c1ccc(C)cc1` [R4=Me; R5=Bn; n=2, (4S)-3,3-Diethyl-1-[(R)-α-n-propyl-(4-methyl)benzylaminocarbonyl]-4-[(4-(2-benzylmethylamino)ethyl)phenoxy]azetidin-2-one], the kinact/KI is 1.32e+06 M⁻¹ s⁻¹. With `CCC[C@@H](NC(=O)N1C(=O)C(CC)(CC)[C@@H]1Oc1ccc(CCCCN(C)Cc2ccccc2)cc1)c1ccc(C)cc1` [R4=Me; R5=Bn; n=4], the kinact/KI stood at 640000 M⁻¹ s⁻¹. On the same count and under the same terms, as for `CCC[C@@H](NC(=O)N1C(=O)C(CC)(CC)[C@@H]1Oc1ccc(CCN(C)CCN(C)C)cc1)c1ccc(C)cc1` [R4=Me; R5=CH2 CH2 NMe2; n=2, (4S)-3,3-Diethyl-1-[(R)-α-n-propyl-(4-methyl)benzylaminocarbonyl]-4-[(4-(2-((2-dimethylamino)ethyl)methylamino)ethyl)phenoxy]azetidin-2-one], the figure is 1.2e+06 M⁻¹ s⁻¹.
